Columns and labels:
[1] = tested on: picornaviruses (CVB1, HRV-A2, HRV-A23, EV-68); test: Anti-picornavirus cytopathic effect (CPE) reduction assay on HeLa H1 cells; format: cell-based; conditions: Enterovirus B, HeLa H1, 48 h, HeLa H1 cells, 48 h, category from averaging the EC50 values from four picornaviruses (CVB1, HRV-A2, HRV-A23, EV68); read-out: EC50 values of the compounds determined in the anti-picornavirus assay
In short: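 HeLa H1 cells pre-treated 2 h with serially diluted compound in DMEM/2% FBS, then infected at an MOI giving full CPE in 2 days. After 48 h at 37° C, viability read by CellTiterBlue fluorescence (ex 560/em 590 nm), normalised to infected and uninfected vehicle controls; EC50 by non-linear regression, category from mean of four viruses.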

[2] = biological target: T1, PLA2G16 (Homo sapiens, UniProt P53816); test: Enzyme activity assay for PLA2G16 (Red/Green BODIPY PC-A2 fluorescence); format: biochemical; conditions: His-tagged PLA2G16, 4 min pre-incubation, 2 nM to 50 μM; read-out: IC50 values of the compounds determined in the enzyme activity assay for PLA2G16
T1 construct: Hexa-His (N); made in house; host or cells: E. coli BL21(DE3)
T1 sequence (P53816 1-162): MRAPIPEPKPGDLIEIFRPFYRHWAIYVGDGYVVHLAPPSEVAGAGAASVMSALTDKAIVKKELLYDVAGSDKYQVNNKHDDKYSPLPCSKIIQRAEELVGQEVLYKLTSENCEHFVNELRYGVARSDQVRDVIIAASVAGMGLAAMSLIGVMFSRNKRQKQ
In short: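 N-His-tagged human PLA2G16 from E. coli, Ni-NTA purified. Pre-incubated 4 min with compound (2 nM–50 μM final) in pH 8.5 Tris/NaCl buffer with 5 mM glutathione, then BODIPY PC-A2 in DOPC/DOPG/cholesterol vesicles added. Fluorescence (ex 480/em 530 nm) increase over 10 min taken as activity; IC50 by non-linear regression.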

Structure (SMILES) | EC50 [1] | IC50 [2]
COc1ccccc1N(C=O)C(C)C(=O)C(=O)NCC1CC1 (stereo not shown) [FP 105, N-(Cyclopropylmethyl)-3-[N-(2-methoxyphenyl)formamido]-2-oxobutanamide] | 1 to 10 µM | < 1 µM
CC(NC(=O)c1c(Cl)cccc1Cl)C(=O)C(=O)NCC1CC1 (stereo not shown) [FP 163, N-(Cyclopropylmethyl)-3-[(2,6-dichlorophenyl)formamido]-2-oxobutanamide] | < 1 µM | < 1 µM
COc1ccccc1N(C=O)C(C)C(=O)C(=O)NCCc1cccc(Cl)c1 (stereo not shown) [FP 97, N-[2-(3-Chlorophenyl)ethyl]-3-[N-(2-methoxyphenyl)formamido]-2-oxobutanamide] | < 1 µM | < 1 µM
CC(C)CC(C(=O)C(=O)NCC1CC1)N(C=O)CC1CCOC1 (stereo not shown) [FP 73, N-(Cyclopropylmethyl)-5-methyl-2-oxo-3-{N-[(oxolan-3-yl)methyl]formamido} hexanamide] | 1 to 10 µM | < 1 µM
N#CC1CC(NC(=O)C(=O)[C@H]2CCC(=O)N2Cc2ccccc2)C1 (stereo partly drawn) [FP 303, 2-[(2R)-1-Benzyl-5-oxopyrrolidin-2-yl]-N-(3-cyanocyclobutyl)-2-oxoacetamide] | 1 to 10 µM | < 1 µM
CC(NS(=O)(=O)c1ccccc1)C(=O)C(=O)NCC1CCCCC1 (stereo not shown) [FP 218, 3-Benzenesulfonamido-N-(cyclohexylmethyl)-2-oxobutanamide] | 1 to 10 µM | < 1 µM
CC(C)N(C=O)C(C)C(=O)C(=O)NCC1CCCCC1 (stereo not shown) [FP 48, N-(Cyclohexylmethyl)-2-oxo-3-[N-(propan-2-yl)formamido]butanamide] | 1 to 10 µM | < 1 µM
CC(C(=O)C(=O)NCC1CC1)N(C)C(=O)c1ccccc1 (stereo not shown) [FP 149, N-(Cyclopropylmethyl)-3-(N-methyl-1-phenylformamido)-2-oxobutanamide] | 1 to 10 µM | < 1 µM
CC(C(=O)C(=O)NCC1CC1)N(C=O)CC1CCCCC1 (stereo not shown) [FP 38, 3-[N-(Cyclohexylmethyl)formamido]-N-(cyclopropylmethyl)-2-oxobutanamide] | < 1 µM | < 1 µM
O=C(NCC1CC1)C(=O)C1CCC(=O)N1Cc1ccc(F)cc1 (stereo not shown) [FP 241, N-(Cyclopropylmethyl)-2-{1-[(4-fluorophenyl)methyl]-5-oxopyrrolidin-2-yl}-2-oxoacetamide] | < 1 µM | < 1 µM
C[C@H]1CC(=O)N(Cc2ccccc2)[C@H]1C(=O)C(=O)NC1CC1 (single isomer, unassigned) [FP 341] | 1 to 10 µM | < 1 µM
Cc1cccc(C(=O)NC(C)C(=O)C(=O)NCC2CC2)c1 (stereo not shown) [FP 171, N-(Cyclopropylmethyl)-3-[(3-methylphenyl)formamido]-2-oxobutanamide] | > 10 µM | 1 to 10 µM
O=C(NCc1ncccn1)C(=O)[C@H]1CCC(=O)N1Cc1ccccc1 [FP 298, 2-[(2R)-1-Benzyl-5-oxopyrrolidin-2-yl]-2-oxo-N-[(pyrimidin-2-yl)methyl]acetamide] | 1 to 10 µM | < 1 µM
CC[C@H](C)NC(=O)C(=O)C(C)N(C=O)c1ccccc1OC (stereo partly drawn) [FP 106, N-[(2S)-Butan-2-yl]-3-[N-(2-methoxyphenyl)formamido]-2-oxobutanamide] | 1 to 10 µM | < 1 µM
COCCC(C(=O)C(=O)NCC1CC1)N(C=O)Cc1ccccc1 (stereo not shown) [FP 70, 3-(N-Benzylformamido)-MN-(cyclopropylmethyl)-5-methoxy-2-oxopentanamide] | 1 to 10 µM | < 1 µM
CC(C)NC(=O)[C@H]1C[C@H](NC(=O)C(=O)[C@H]2CCC(=O)N2Cc2ccccc2)C1 [FP 306, (1 r,3r)-3-{2-[(2R)-1-Benzyl-5-oxopyrrolidin-2-yl]-2-oxoacetamido}-N-(propan-2-yl)cyclobutane-1-carboxamide] | 1 to 10 µM | < 1 µM
Cc1ccc(CN2C(=O)CCC2C(=O)C(=O)NC2CC2)s1 (stereo not shown) [FP 277, N-Cyclopropyl-2-{1-[(5-methylthiophen-2-yl)methyl]-5-oxopyrrolidin-2-yl}-2-oxoacetamide] | 1 to 10 µM | < 1 µM
COc1ccccc1N(C=O)C(C)C(=O)C(=O)NCC(C)(C)C (stereo not shown) [FP 101, N-(2,2-Dimethylpropyl)-3-[N-(2-methoxyphenyl)formamido]-2-oxobutanamide] | 1 to 10 µM | < 1 µM
CNC(=O)C(=O)[C@H]1CCC(=O)N1Cc1ccccc1 [FP 281, 2-[(2R)-1-Benzyl-5-oxopyrrolidin-2-yl]-N-methyl-2-oxoacetamide] | 1 to 10 µM | < 1 µM

Structure (SMILES) | EC50 [1] | IC50 [2]
COc1ccccc1N(C=O)C(C)C(=O)C(=O)NCc1cccnc1 (stereo not shown) [FP 89, 3-[N-(2-Methoxyphenyl)formamido]-2-oxo-A[(pyridin-3-yl)methyl]butanamide] | > 10 µM | < 1 µM
CC(OCC(C)(C)C)C(=O)C(=O)NCC1CC1 (stereo not shown) [FP 122, N-(Cyclopropylmethyl)-3-(2,2-dimethylpropoxy)-2-oxobutanamide] | 1 to 10 µM | 1 to 10 µM
COc1ccccc1N(C=O)C(C)C(=O)C(=O)NCc1ccccc1C (stereo not shown) [FP 98, 3-[N-(2-Methoxyphenyl)formamido]-N-[(2-methylphenyl)methyl]-2-oxobutanamide] | 1 to 10 µM | < 1 µM
O=C(NC1CCN(C(=O)NC2CCCC2)CC1)C(=O)[C@H]1CCC(=O)N1Cc1ccccc1 [FP 325, 4-{2-[(2R)-1-Benzyl-5-oxopyrrolidin-2-yl]-2-oxoacetamido}-N-cyclopentylpiperidine-1-carboxamide] | < 1 µM | < 1 µM
C[C@H](CO)NC(=O)C(=O)C1CCC(=O)N1Cc1ccc(Cl)cc1 (stereo partly drawn) [FP 258, 2-{1-[(4-Chlorophenyl)methyl]-5-oxopyrrolidin-2-yl}-N-[(2R)-1-hydroxypropan-2-yl]-2-oxoacetamide] | 1 to 10 µM | 1 to 10 µM
CCCC(NC(=O)CN(C)C)C(=O)C(=O)NCC1CCCCC1 (stereo not shown) [FP 207, N-(Cyclohexylmethyl)-3-[2-(dimethylamino)acetamido]-2-oxohexanamide] | 1 to 10 µM | < 1 µM
CC1(C)CC(=O)N(Cc2ccccc2)C1C(=O)C(=O)NC1CC1 (stereo not shown) [FP 349, 2-(1-Benzyl-3,3-dimethyl-5-oxopyrrolidin-2-yl)-N-cyclopropyl-2-oxoacetamide] | 1 to 10 µM | < 1 µM
O=CN(Cc1ccccc1)C(C(=O)C(=O)NCC1CC1)C1CCOCC1 (stereo not shown) [FP 71, 3-(N-Benzylformamido)-N-(cyclopropylmethyl)-3-(oxan-4-yl)-2-oxopropanamide] | 1 to 10 µM | < 1 µM
O=C(NCC1CC1)C(=O)C1CCCC(=O)N1Cc1ccccc1 (stereo not shown) [FP 204, 2-(1-Benzyl-6-oxopiperidin-2-yl)-N-(cyclopropylmethyl)-2-oxoacetamide] | 1 to 10 µM | < 1 µM
CC(C)C(=O)N(C)C(C)C(=O)C(=O)NCC1CC1 (stereo not shown) [FP 151, N-(Cyclopropylmethyl)-3-(N,2-dimethylpropanamido)-2-oxobutanamide] | > 10 µM | 1 to 10 µM
CCC(=O)N(C)C(C)C(=O)C(=O)NCC1CCCCC1 (stereo not shown) [FP 145, N-(Cyclohexylmethyl)-3-(N-methylpropanamido)-2-oxobutanamide] | 1 to 10 µM | < 1 µM
Cc1noc(CCNC(=O)C(=O)[C@H]2CCC(=O)N2Cc2ccccc2)n1 [FP 293, 2-[(2R)-1-Benzyl-5-oxopyrrolidin-2-yl]-N-[2-(3-methyl-1,2,4-oxadiazol-5-yl)ethyl]-2-oxoacetamide] | 1 to 10 µM | < 1 µM
O=C(N[C@@H]1CCCC[C@@H]1O)C(=O)[C@H]1CCC(=O)N1Cc1ccccc1 (single isomer, unassigned) [FP 272] | > 10 µM | 1 to 10 µM
O=C(NCCC1CC1)C(=O)C1CCC(=O)N1Cc1ccccc1 (stereo not shown) [FP 307, 2-(1-Benzyl-5-oxopyrrolidin-2-yl)-N-(2-cyclopropylethyl)-2-oxoacetamide] | < 1 µM | < 1 µM
CC(OC1CCCCC1)C(=O)C(=O)NCC1CC1 (stereo not shown) [FP 120, 3-(Cyclohexyloxy)-N-(cyclopropylmethyl)-2-oxobutanamide] | < 1 µM | < 1 µM
O=C(NC1CCN(S(=O)(=O)C2CC2)CC1)C(=O)[C@H]1CCC(=O)N1Cc1ccccc1 [FP 320, 2-[(2R)-1-Benzyl-5-oxopyrrolidin-2-yl]-N-[1-(cyclopropanesulfonyl)piperidin-4-yl]-2-oxoacetamide] | < 1 µM | < 1 µM
CC(C)CNC(=O)C(=O)C(C)NC(=O)c1ccccc1 (stereo not shown) [FP 182, N-(2-Methylpropyl)-2-oxo-3-(phenylformamido)butanamide] | > 10 µM | < 1 µM
CC(C(=O)C(=O)NCC(F)(F)F)N(C=O)C1CCCCC1 (stereo not shown) [FP 110, 3-(N-Cyclohexylformamido)-2-oxo-N-(2,2,2-trifluoroethyl)butanamide] | 1 to 10 µM | < 1 µM
CC(NC(=O)c1ccccc1Cl)C(=O)C(=O)NCC1CC1 (stereo not shown) [FP 169, 3-[(2-Chlorophenyl)formamido]-(cyclopropylmethyl)-2-oxobutanamide] | 1 to 10 µM | < 1 µM

From patent publication US11091428B2 (HAPLOGEN GMBH, priority 2016, dated 2021)
